Our source for the IC50 values is patent publication US20080161232A1, “C5a Receptor Antagonist” (JERINI AG, priority 2005, published 2008).

Starred links: 1 amine or outer side, 2 acyl side, 3 side chain; linkers in the order of their positions; H or OH if unused. Positions of bridges follow the written chain, without caps; N, C: chain ends. Non-standard residues stand in square brackets, D forms with d. Residues, ends and D or L forms follow the SMILES beside them. ξ: configuration not given here. *: point of attachment. Phe(4-amidino) = N=C(N)c1ccc(C[C@H](N)C(=O)O)cc1; Dihydroorotyl(S) = O=C1C[C@@H](C(=O)*)NC(=O)N1; ξTrp(6-F) = NC(Cc1c[nH]c2cc(F)ccc12)C(=O)O; Phe(3-Cl) = N[C@@H](Cc1cccc(Cl)c1)C(=O)O; Dip = N[C@H](C(=O)O)C(c1ccccc1)c1ccccc1; Phe(2-Cl) = N[C@@H](Cc1ccccc1Cl)C(=O)O; Phe(4-F) = N[C@@H](Cc1ccc(F)cc1)C(=O)O; dPhe(2-Me) = Cc1ccccc1C[C@@H](N)C(=O)O; 2Nal = N[C@@H](Cc1ccc2ccccc2c1)C(=O)O; Phe(2-F) = N[C@@H](Cc1ccccc1F)C(=O)O; Bta = N[C@@H](Cc1csc2ccccc12)C(=O)O; Hyp = O=C(O)[C@@H]1C[C@@H](O)CN1; d(hLeu) = CC(C)CC[C@@H](N)C(=O)O; dCha = N[C@H](CC1CCCCC1)C(=O)O; hLeu = CC(C)CC[C@H](N)C(=O)O; NMeA = CN[C@@H](C)C(=O)O; Nle = CCCC[C@H](N)C(=O)O; Orn = NCCC[C@H](N)C(=O)O; Aze = O=C(O)[C@@H]1CCN1; Dab = NCC[C@H](N)C(=O)O; CO = O=C([*:1])[*:2]; NHPh = c1ccc(N*)cc1; tBu = CC(C)(C)*

The target in the experiment is T1, human C5aR(CD88) (Homo sapiens, UniProt P21730).
T1 construct: expressed in transfected cells; host or cells: rat basophilic leukemia cells (RBL)
T1 sequence (P21730 1-350): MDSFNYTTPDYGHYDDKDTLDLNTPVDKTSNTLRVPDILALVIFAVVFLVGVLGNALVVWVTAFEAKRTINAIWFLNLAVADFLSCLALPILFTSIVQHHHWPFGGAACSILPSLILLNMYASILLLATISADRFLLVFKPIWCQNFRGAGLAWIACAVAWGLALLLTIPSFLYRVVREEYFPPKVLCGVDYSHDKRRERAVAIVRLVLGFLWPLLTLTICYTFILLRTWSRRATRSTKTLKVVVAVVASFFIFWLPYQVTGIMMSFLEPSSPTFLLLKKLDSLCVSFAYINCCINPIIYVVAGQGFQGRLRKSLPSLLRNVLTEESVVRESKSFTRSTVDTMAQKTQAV
Nature of the experiment: Determination of the IC50 value in an enzyme release assay (functional assay, antagonistic activity). The following applies: antagonistic activity; IC50 group in enzyme release assay, RBL cells expressing human C5aR(CD88); read-out: activity (group). In kind it is cell-based.
In the case of `CC(=O)N[C@@H](Cc1ccccc1)C(=O)N[C@H]1CCCNC(=O)[C@H](Cc2ccc(C(=N)N)cc2)NC(=O)[C@H](Cc2c[nH]c3ccccc23)NC(=O)[C@@H](CC2CCCCC2)NC(=O)[C@@H]2CCCN2C1=O` [compound 21] (Ac-F[Orn]P[dCha]W[Phe(4-amidino)]; lactam 2-C), the IC50 is 200 to 2000 nM.
Next, `CC(=O)N[C@@H](Cc1ccccc1)C(=O)N[C@@H](CCCNC(=N)N)C(=O)N1CCC[C@H]1C(=O)N[C@H](CC1CCCCC1)C(=O)N[C@@H](Cc1csc2ccccc12)C(=O)N[C@@H](Cc1ccccc1)C(N)=O` [Compound 122, Ac-Phe-Arg-Pro-cha-Bta-Phe-NH2] (Ac-FRP[dCha][Bta]F-NH2): 20 to 50 nM.
As to `CC(C)CC[C@H]1NC(=O)[C@@H]2CCCN2C(=O)[C@@H](NC(=O)[C@@H](N)Cc2ccccc2)CCCNC(=O)[C@H](Cc2ccccc2)NC(=O)[C@H](Cc2cccc(Cl)c2)NC1=O` [Compound 377, H-Phe-[Orn-Pro-hle-Mcf-Phe]] (H-F[Orn]P[d(hLeu)][Phe(3-Cl)]F; lactam 2-C), the IC50 was in the range of 20 to 50 nM.
In the case of `CC(=O)N[C@@H](Cc1ccccc1)C(=O)N[C@@H](CCCN)C(=O)N(C)[C@@H](C)C(=O)N[C@H](CC1CCCCC1)C(=O)N[C@@H](Cc1csc2ccccc12)C(=O)N[C@@H](Cc1ccccc1)C(N)=O` [Compound 246, Ac-Phe-Orn-NMA-cha-Bta-Phe-NH2] (Ac-F[Orn][NMeA][dCha][Bta]F-NH2), the IC50 is 50 to 200 nM.
Turning to `CCCC[C@@H]1NC(=O)[C@H](Cc2c[nH]c3ccccc23)NC(=O)[C@@H](CCC(C)C)NC(=O)[C@@H]2CCCN2C(=O)[C@@H](NC(=O)[C@@H](N)Cc2ccccc2)CCCNC1=O` [Compound 381, H-Phe-[Orn-Pro-hle-Trp-Nle]] (H-F[Orn]P[d(hLeu)]W[Nle]; lactam 2-C), the IC50 lay in the range of 20 to 50 nM.
Turning to `CC(=O)N[C@H](C(=O)N[C@@H](CCCN)C(=O)N1CCC[C@H]1C(=O)N[C@H](CC1CCCCC1)C(=O)N[C@@H](Cc1c[nH]c2ccccc12)C(=O)N[C@@H](Cc1ccccc1)C(N)=O)C(c1ccccc1)c1ccccc1` [Compound 78, Ac-Ebw-Orn-Pro-cha-Trp-Phe-NH2] (Ac-[Dip][Orn]P[dCha]WF-NH2), the IC50 lay within 50 to 200 nM.
Regarding `CC(=O)N[C@@H](Cc1ccccc1)C(=O)N[C@@H](CCCN)C(=O)N1CCC[C@H]1C(=O)N[C@H](Cc1ccccc1C)C(=O)N[C@@H](Cc1csc2ccccc12)C(=O)N[C@@H](Cc1ccccc1)C(N)=O` [Compound 308, Ac-Phe-Orn-Pro-omf-Bta-Phe-NH2] (Ac-F[Orn]P[dPhe(2-Me)][Bta]F-NH2), the IC50 was 50 to 200 nM.
Turning to `CC(=O)N[C@@H](Cc1ccccc1)C(=O)N[C@@H](CCCN)C(=O)N1CCC[C@H]1C(=O)N[C@H](CSC(C)(C)C)C(=O)N[C@@H](Cc1ccc(F)cc1)C(=O)N[C@@H](Cc1ccccc1)C(N)=O` [Compound 266, Ac-Phe-Orn-Pro-ctb-Pff-Phe-NH2] (Ac-F[Orn]P[dC](tBu)[Phe(4-F)]F-NH2), the IC50 was in the range of 20 to 50 nM.
Next, `CC(=O)N[C@@H](Cc1ccccc1)C(=O)N[C@@H](CCN)C(=O)N1CC[C@H]1C(=O)N[C@H](CCC(C)C)C(=O)N[C@@H](Cc1csc2ccccc12)C(=O)N[C@@H](Cc1ccccc1)C(N)=O` [Compound 214, Ac-Phe-Dab-Aze-hle-Bta-Phe-NH2] (Ac-F[Dab][Aze][d(hLeu)][Bta]F-NH2): 20 to 50 nM; `CC(=O)N[C@@H](Cc1ccccc1F)C(=O)N[C@@H](CCCN)C(=O)N1CCC[C@H]1C(=O)N[C@H](CC1CCCCC1)C(=O)N[C@@H](Cc1csc2ccccc12)C(=O)N[C@@H](Cc1ccccc1)C(N)=O` [Compound 166, Ac-Off-Orn-Pro-cha-Bta-Phe-NH2] (Ac-[Phe(2-F)][Orn]P[dCha][Bta]F-NH2): 20 to 50 nM.
On to `CC(=O)N[C@@H](Cc1ccccc1)C(=O)N[C@@H](CCCN)C(=O)N[C@@H](CO)C(=O)N[C@H](CC1CCCCC1)C(=O)N[C@@H](Cc1c[nH]c2ccccc12)C(=O)N[C@@H](Cc1ccccc1)C(=O)O` [Compound 117, Ac-Phe-Orn-Ser-cha-Trp-Phe-OH] (Ac-F[Orn]S[dCha]WF-OH), for which the IC50 was in the range of 200 to 2000 nM.
The figure for `CC(=O)N[C@@H](Cc1ccccc1)C(=O)N[C@@H](CCCN)C(=O)N1CCC[C@H]1C(=O)N[C@H](CCC(C)C)C(=O)NC(Cc1c[nH]c2cc(F)ccc12)C(=O)N[C@@H](Cc1ccccc1)C(N)=O` (stereo partly drawn) [Compound 269, Ac-Phe-Orn-Pro-hle-6FW-Phe-NH2] (Ac-F[Orn]P[d(hLeu)][ξTrp(6-F)]F-NH2) is 50 to 200 nM.
Turning to `CC(C)CC[C@@H]1NC(=O)[C@H](Cc2c[nH]c3ccccc23)NC(=O)[C@@H](CCC(C)C)NC(=O)[C@@H]2C[C@@H](O)CN2C(=O)[C@@H](NC(=O)[C@@H](N)Cc2ccccc2)CCCNC1=O` [Compound 367, H-Phe-[Orn-Hyp-hle-Trp-Hle]] (H-F[Orn][Hyp][d(hLeu)]W[hLeu]; lactam 2-C), the IC50 was in the range of 50 to 200 nM.
Turning to `CC(=O)NCCC[C@H](NC(=O)[C@H](Cc1ccccc1)NC(C)=O)C(=O)N1CCC[C@H]1C(=O)N[C@H](CC1CCCCC1)C(=O)N[C@@H](Cc1csc2ccccc12)C(=O)N[C@@H](Cc1ccccc1)C(N)=O` [Compound 232, Ac-Phe-OrA-Pro-cha-Bta-Phe-NH2] (Ac-F[Orn](Ac)P[dCha][Bta]F-NH2), the IC50 lay in the range of 50 to 200 nM.
With `CC(C)CC[C@@H](NC(=O)[C@@H]1CCCN1C(=O)[C@H](CCCN)NC(=O)[C@H](Cc1ccccc1)NC(=O)[C@@H]1CC(=O)NC(=O)N1)C(=O)N[C@@H](Cc1ccc(F)cc1)C(=O)N[C@@H](Cc1ccccc1)C(N)=O` [Compound 352, Hoo-Phe-Orn-Pro-hle-Pff-Phe-NH2] ({Dihydroorotyl(S)}-F[Orn]P[d(hLeu)][Phe(4-F)]F-NH2), the IC50 is 20 to 50 nM.
Regarding `CCCC[C@@H]1NC(=O)[C@H](Cc2ccccc2Cl)NC(=O)[C@@H](CCC(C)C)NC(=O)[C@H](CO)NC(=O)[C@@H](NC(=O)[C@@H](N)Cc2ccccc2)CCCNC1=O` [Compound 386, H-Phe-[Orn-Ser-hle-Ocf-Nle]] (H-F[Orn]S[d(hLeu)][Phe(2-Cl)][Nle]; lactam 2-C), the IC50 fell in the range of 50 to 200 nM.
As for `CC(=O)N[C@@H](Cc1ccccc1)C(=O)N[C@@H](CCCN)C(=O)N1CCC[C@H]1C(=O)N[C@H](CCC(C)C)C(=O)N[C@@H](Cc1ccc(F)cc1)C(=O)N[C@@H](Cc1ccc2ccccc2c1)C(N)=O` [Compound 297, Ac-Phe-Orn-Pro-hle-Pff-2Ni—NH2] (Ac-F[Orn]P[d(hLeu)][Phe(4-F)][2Nal]-NH2), the IC50 was in the range of 50 to 200 nM.
Regarding `NCCC[C@H](NC(=O)[C@H](Cc1ccccc1)NC(=O)Nc1ccccc1)C(=O)N1CCC[C@H]1C(=O)N[C@H](CC1CCCCC1)C(=O)N[C@@H](Cc1c[nH]c2ccccc12)C(=O)N[C@@H](Cc1ccccc1)C(N)=O` [Compound 85, Ph-NH—CO-Phe-Orn-Pro-cha-Trp-Phe-NH2] ({NHPh-CO}-F[Orn]P[dCha]WF-NH2), the IC50 lay in the range of 50 to 200 nM.
With `CCCC[C@@H]1NC(=O)[C@H](Cc2ccc(F)cc2)NC(=O)[C@@H](CCC(C)C)NC(=O)[C@@H]2C[C@@H](O)CN2C(=O)[C@@H](NC(=O)[C@@H](N)Cc2ccccc2)CCCCNC1=O` [Compound 353, H-Phe-[Lys-Hyp-hle-Pff-Nle]] (H-FK[Hyp][d(hLeu)][Phe(4-F)][Nle]; lactam 2-C), the IC50 was 50 to 200 nM.
Consider `CC(C)CC[C@H]1NC(=O)[C@@H]2C[C@@H](O)CN2C(=O)[C@@H](NC(=O)[C@@H](N)Cc2ccccc2)CCCNC(=O)[C@H](CC(C)C)NC(=O)[C@H](Cc2cccc(Cl)c2)NC1=O` [Compound 361, H-Phe-[Orn-Hyp-hle-Mcf-Leu]] (H-F[Orn][Hyp][d(hLeu)][Phe(3-Cl)]L; lactam 2-C), for which the IC50 was in the range of 50 to 200 nM.
